Experiments:
Test in all cases: relative viability (nuclei count vs DMSO), 5 days (fraction); higher = more cells survive
QS11 + Foretinib = compound: C1CC2=C(C1)C=C(C=C2)OC3=NC(=C4C(=N3)N(C=N4)CC5=CC=C(C=C5)C6=CC=CC=C6)N[C@@H](CC7=CC=CC=C7)CO [QS11] + COc1cc2c(Oc3ccc(NC(=O)C4(C(=O)Nc5ccc(F)cc5)CC4)cc3F)ccnc2cc1OCCCN1CCOCC1 [Foretinib] (partner 0.25 µM)
Method in brief: (§1)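 Lung cancer cell lines in 1536-well plates were dosed by pin tool the day after seeding, either with one drug alone or with a fixed anchor-drug dose plus five library-drug doses (not always all listed) in √10 steps. After 5 days, cells were fixed and their nuclei stained in one step (final 0.05% Triton X-100, 1% formaldehyde, 1 ug/ml Hoechst), then counted on 4× images. Relative viability is the nuclei count in treated wells divided by that in vehicle wells. Values are medians of duplicate plates.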

QS11 + Lapatinib = compound: C1CC2=C(C1)C=C(C=C2)OC3=NC(=C4C(=N3)N(C=N4)CC5=CC=C(C=C5)C6=CC=CC=C6)N[C@@H](CC7=CC=CC=C7)CO [QS11] + CS(=O)(=O)CCNCc1ccc(-c2ccc3ncnc(Nc4ccc(OCc5cccc(F)c5)c(Cl)c4)c3c2)o1 [Lapatinib] (partner 2 µM)
Method in brief: as §1

AZ628 + Tozasertib = compound: CC1=C(C=C(C=C1)NC(=O)C2=CC(=CC=C2)C(C)(C)C#N)NC3=CC4=C(C=C3)N=CN(C4=O)C [AZ628] + Cc1cc(Nc2cc(N3CCN(C)CC3)nc(Sc3ccc(NC(=O)C4CC4)cc3)n2)n[nH]1 [Tozasertib] (partner 0.1 µM)
Method in brief: as §1

AZ628 + Decitabine = compound: CC1=C(C=C(C=C1)NC(=O)C2=CC(=CC=C2)C(C)(C)C#N)NC3=CC4=C(C=C3)N=CN(C4=O)C [AZ628] + Nc1ncn([C@H]2C[C@H](O)[C@@H](CO)O2)c(=O)n1 [Decitabine] (partner 2 µM)
Method in brief: as §1

Cell Line	relative viability (QS11 + Foretinib; first compound 0.08 µM)	relative viability (QS11 + Foretinib; first compound 0.253 µM)	relative viability (QS11 + Foretinib; first compound 2.53 µM)	relative viability (QS11 + Foretinib; first compound 8 µM)	relative viability (QS11 + Lapatinib; first compound 0.08 µM)	relative viability (QS11 + Lapatinib; first compound 0.253 µM)	relative viability (QS11 + Lapatinib; first compound 2.53 µM)	relative viability (QS11 + Lapatinib; first compound 8 µM)	relative viability (AZ628 + Tozasertib; first compound 0.08 µM)	relative viability (AZ628 + Tozasertib; first compound 0.253 µM)	relative viability (AZ628 + Tozasertib; first compound 0.8 µM)	relative viability (AZ628 + Tozasertib; first compound 2.53 µM)	relative viability (AZ628 + Tozasertib; first compound 8 µM)	relative viability (AZ628 + Decitabine; first compound 0.08 µM)	relative viability (AZ628 + Decitabine; first compound 0.253 µM)	relative viability (AZ628 + Decitabine; first compound 0.8 µM)	relative viability (AZ628 + Decitabine; first compound 2.53 µM)	relative viability (AZ628 + Decitabine; first compound 8 µM)	relative viability (QS11 + Foretinib; first compound 0.8 µM)	relative viability (QS11 + Lapatinib; first compound 0.8 µM)
H3255	0.787	0.864	0.927	0.93	0.261	0.236	0.24	0.234	0.863	0.613	0.915	0.62	0.487	0.723	0.504	0.567	0.51	0.379		
LOU-NH91	0.854	0.926	0.875	0.94	0.742	0.622	0.731	0.685	0.568	0.7	0.7	0.629	0.573	0.814	0.811	0.801	0.816	0.749	0.904	
NCI-H2126	1.18	1.22	1.1	1.04	0.792	0.698	0.802	0.717	0.899	0.815	0.951	0.859	0.866	0.567	0.571	0.632	0.606	0.593	1.07	0.727
PC-14	1.11	0.95	0.889	1.06	0.277	0.315	0.249	0.329	0.502	0.526	0.612	0.564	0.44	0.255	0.228	0.168	0.19	0.166	0.777	0.257
EMC-BAC-2	1.03	1.02	0.652	0.622	0.927	0.89	0.984	0.89	0.294	0.335	0.381	0.349	0.362	0.944	0.84	0.874	0.749	0.465	0.857	0.884
HCC-78	0.538	0.494	0.689	0.66	0.577	0.876	0.627	0.847	0.445	0.383	0.463	0.346	0.465	0.734	0.629	0.771	0.787	0.848	0.606	0.699
SK-LU-1	0.782	0.874	0.784	0.641	0.704	0.868	0.803	0.838		0.275	0.287	0.255	0.283	0.549	0.55	0.505	0.577	0.391	0.68	0.963
ABC-1	0.912	1.06	1.08	1.32	1.18	1.44	1.16	1.47	0.226	0.166	0.215	0.201	0.175	1.07	0.898	1.07	1.18	1.07	1.06	1.16
LK-2	1.13	1.38	1.13	1.09	1.04	1.15	0.829	1.3	0.166	0.167	0.17	0.173	0.165	0.308	0.271	0.326	0.338	0.184	1.41	1
NCI-H23	1.01	1.1	0.863	0.961	1.01	0.988	0.885	1.1	0.286	0.263	0.323	0.26	0.213	0.298	0.315	0.232	0.291	0.269	0.753	0.871
NCI-H2228	0.835	0.827	1	1.03	1.12	0.826	1.54	1.09	0.241	0.288	0.239	0.272	0.161						0.755	1.17
NCI-H441	1.01	1.19	0.775	0.746					0.647	0.613	0.676	0.556	0.445	0.257	0.313	0.245	0.212	0.226	0.97	
NCI-H460	1.07	0.939	1.05	0.626	1.4	1.14	0.686	0.24	0.449	0.186	0.146	0.382	0.053	0.512	0.456	0.38	0.532	0.165	0.731	0.567
LU99A	0.785	0.796	0.772	0.748	0.83	1.17	0.963	0.637	0.272	0.242	0.265	0.231	0.257	0.825	0.669	0.806	0.447	0.386	0.855	1.15
NCI-H358	0.596	0.777	0.936	0.52	0.41	0.436	0.703	0.785	0.123	0.114	0.1	0.117	0.0782	0.233	0.192	0.184	0.195	0.158	1	0.482
IA-LM	1.22	1.15	1.12	0.969	1.13	1.02	0.589	0.596												0.513
UMC-11	1.13	1.1	1.32	1.06	0.873	0.984	1.16	1.33	0.228	0.21	0.194	0.212	0.203	0.704	0.65	0.551	0.556	0.758	1.07	0.874
LXF-289	0.994	1.05	0.875	0.834	0.941	0.909	0.821	0.739	0.199	0.213	0.195	0.174	0.155	0.403	0.378	0.394	0.371	0.372	0.704	0.757
NCI-H647	1.17	1.24	1.09	1.06	0.939	1.12	1.1	0.711	0.293	0.262	0.296	0.269	0.146	0.383	0.452	0.329	0.383	0.332	0.988	0.916
NCI-H1651	0.787	0.901	0.671	0.698	0.941	0.872	1.01	0.76	0.726	0.656	0.579	0.653	0.43	0.67	0.571	0.653	0.683	0.593	0.822	0.828

Cell Line	relative viability (QS11 + Foretinib; first compound 0.08 µM)	relative viability (QS11 + Foretinib; first compound 0.253 µM)	relative viability (QS11 + Foretinib; first compound 2.53 µM)	relative viability (QS11 + Foretinib; first compound 8 µM)	relative viability (QS11 + Lapatinib; first compound 0.08 µM)	relative viability (QS11 + Lapatinib; first compound 0.253 µM)	relative viability (QS11 + Lapatinib; first compound 2.53 µM)	relative viability (QS11 + Lapatinib; first compound 8 µM)	relative viability (AZ628 + Tozasertib; first compound 0.08 µM)	relative viability (AZ628 + Tozasertib; first compound 0.253 µM)	relative viability (AZ628 + Tozasertib; first compound 0.8 µM)	relative viability (AZ628 + Tozasertib; first compound 2.53 µM)	relative viability (AZ628 + Tozasertib; first compound 8 µM)	relative viability (AZ628 + Decitabine; first compound 0.08 µM)	relative viability (AZ628 + Decitabine; first compound 0.253 µM)	relative viability (AZ628 + Decitabine; first compound 0.8 µM)	relative viability (AZ628 + Decitabine; first compound 2.53 µM)	relative viability (AZ628 + Decitabine; first compound 8 µM)	relative viability (QS11 + Foretinib; first compound 0.8 µM)	relative viability (QS11 + Lapatinib; first compound 0.8 µM)
NCI-H838	0.993	0.953	0.898	0.85	0.944	0.918	0.899	0.904	0.27	0.302	0.281	0.288	0.212	0.49	0.504	0.476	0.455	0.479	0.688	0.68
NCI-H661	1	1.02	1.05	1.03	0.474	0.45	0.354	0.463	0.365	0.409	0.365	0.376	0.42	0.601	0.491	0.445	0.451	0.482	0.913	0.632
NCI-H1734	0.842	0.932	0.772	0.713	1.07	0.968	1.01	0.898	0.258	0.267	0.196	0.243	0.197	0.515	0.549	0.5	0.457	0.344	0.91	0.921
HCC-44					1.07	0.936	0.955	0.888	1.16	0.956	0.941	0.332	0.532	0.97	0.999	1	0.953	0.947		0.668
CAL-12T	1.04	1.1	1.06	0.939	0.631	0.601	0.652	0.68	0.343	0.366	0.288	0.292	0.182						0.98	0.595
LCLC-103H	0.526	0.883	0.7	0.784					0.525	0.52	0.473	0.523	0.384	0.71	0.728	0.726	0.641	0.601	0.672	
Calu-6	1.04	0.93	0.953	0.998	1.11	1.07	1.31	1.12											0.897	0.969
NCI-H1563	0.971	0.876	1.07	0.916	0.988	0.892	0.972	0.891											1.06	1.12
NCI-H1648									0.624	0.615	0.613	0.539	0.427	0.72	0.563	0.453	0.453	0.489		
NCI-H2342	1.02	1.07	1.02	1.19					0.616	0.529	0.673	0.514	0.471	0.837	0.651	0.779	0.726	0.747	1.07	
NCI-H522									0.578	0.547	0.542	0.523	0.57	0.62	0.66	0.686	0.78	0.522		
NCI-H1792						1.03	0.937	0.711						0.605	0.532	0.514	0.476	0.121		0.633
A549	0.911	0.883	0.918	0.917	1.04	1.14	0.886	0.764						0.262	0.24	0.268	0.287	0.206	0.697	0.621
NCI-H1703	0.306	0.309	0.422	0.322	0.986	1.41	0.974	1.1											0.333	1.04
NCI-H1299	1.14	1.11	1.04	0.948	1.02	0.933	0.917	0.712											0.956	0.807
ChaGo-K-1	0.816	0.967	0.99	0.895					0.241	0.231	0.218	0.212	0.171	0.548	0.504	0.558	0.524	0.481	0.971	
NCI-H1623	0.807	0.829	0.775	1.01					0.528	0.388	0.406	0.381	0.307						0.751	
EBC-1	0.0939	0.0918	0.11	0.144	0.233	0.198	0.211	0.207											0.115	0.194
SW 900	0.981	0.875	0.774	0.8					0.7	0.549	0.553	0.496	0.232	0.442	0.445	0.509	0.417	0.441	0.844	

— the supplement of paper PMC10307832
